From ChEMBL document CHEMBL3272133, “1-[4-(4-Chlorophenyl)-2-(2,6-dichlorophenylthio)-n-butyl]-1H-imidazole nitrate, a new potent antifungal agent” (J Med Chem, 1978)
Calls of active or inactive are those of the source. No cut-off for these calls is given here.

Assays:
Candida albicans [1] = assay: Antifungal activity against mixed infection of Candida albicans infected in mouse assessed as noninfected animals at 1% formulation in modified PEG 400 solution administered vaginally bid for 4 days measured on day 7 relative to placebo; type: functional
Candida albicans [2] = assay: Antifungal activity against mixed infection of Candida albicans infected in mouse assessed as noninfected animals at 1% formulation administered vaginally bid for 4 days measured 6 hrs post last dose relative to placebo; type: functional
Candida albicans [3] = assay: Antifungal activity against mixed infection of Candida albicans infected in mouse assessed as noninfected animals at 1% formulation administered vaginally bid for 4 days measured on day 7 relative to placebo; type: functional
Candida albicans [4] = assay: Antifungal activity against mixed infection of Candida albicans infected in mouse assessed as noninfected animals at 0.5% formulation administered vaginally bid for 4 days measured 6 hrs post last dose relative to placebo; type: functional
Candida albicans [5] = assay: Antifungal activity against mixed infection of Candida albicans infected in mouse assessed as noninfected animals at 0.5% formulation administered vaginally bid for 4 days measured on day 7 relative to placebo; type: functional
Candida albicans [6] = assay: Antifungal activity against mixed infection of Candida albicans infected in mouse assessed as noninfected animals at 0.2% formulation administered vaginally bid for 4 days measured 6 hrs post last dose relative to placebo; type: functional
Candida albicans [7] = assay: Antifungal activity against mixed infection of Candida albicans infected in mouse assessed as noninfected animals at 0.2% formulation administered vaginally bid for 4 days measured on day 7 relative to placebo; type: functional
Candida albicans [8] = assay: Antifungal activity against mixed infection of Candida albicans infected in mouse assessed as noninfected animals at 0.1% formulation administered vaginally bid for 4 days measured 6 hrs post last dose relative to placebo; type: functional
Candida albicans [9] = assay: Antifungal activity against mixed infection of Candida albicans infected in mouse assessed as noninfected animals at 0.1% formulation administered vaginally bid for 4 days measured on day 7 relative to placebo; type: functional
[10] = tested on: Trichophyton mentagrophytes; assay: Antifungal activity against Trichophyton mentagrophytes infected in guinea pig assessed as noninfected animals at 0.5% formulation in steryl alcohol, cetyl alcohol, Span 60, Tween 60, propylene glycol, mineral oil, and water administered qd for 5 days measured on day 4; type: functional
[11] = tested on: Trichophyton mentagrophytes; assay: Antifungal activity against Trichophyton mentagrophytes infected in guinea pig assessed as noninfected animals at 0.5% formulation in steryl alcohol, cetyl alcohol, Span 60, Tween 60, propylene glycol, mineral oil, and water administered qd for 5 days measured on day 7; type: functional
[12] = tested on: Trichophyton mentagrophytes; assay: Antifungal activity against Trichophyton mentagrophytes infected in guinea pig assessed as noninfected animals at 0.5% formulation in steryl alcohol, cetyl alcohol, Span 60, Tween 60, propylene glycol, mineral oil, and water administered qd for 5 days measured on day 14; type: functional
[13] = Acute toxicity in po dosed mouse; type: organism-based; conditions: in vivo
[14] = Acute toxicity in ip dosed mouse; type: organism-based; conditions: in vivo
[15] = Acute toxicity in po dosed male rat; type: organism-based; conditions: in vivo
[16] = Acute toxicity in po dosed female rat; type: organism-based; conditions: in vivo
[17] = Acute toxicity in ip dosed rat; type: organism-based; conditions: in vivo
Salmonella typhimurium [18] = assay: Mutagenic activity in Salmonella typhimurium TA-1535 at 0.1 to 100 ug/plate by Ames assay; type: toxicity, organism-based; conditions: salmonella enterica subsp. enterica serovar typhimurium
Salmonella typhimurium [19] = assay: Mutagenic activity in Salmonella typhimurium TA-1537 at 0.1 to 100 ug/plate by Ames assay; type: toxicity, organism-based; conditions: salmonella enterica subsp. enterica serovar typhimurium
Salmonella typhimurium [20] = assay: Mutagenic activity in Salmonella typhimurium TA-1538 at 0.1 to 100 ug/plate by Ames assay; type: toxicity, organism-based; conditions: salmonella enterica subsp. enterica serovar typhimurium
Salmonella typhimurium [21] = assay: Mutagenic activity in Salmonella typhimurium TA-98 at 0.1 to 100 ug/plate by Ames assay; type: toxicity, organism-based; conditions: salmonella enterica subsp. enterica serovar typhimurium
Salmonella typhimurium [22] = assay: Mutagenic activity in Salmonella typhimurium TA-100 at 0.1 to 100 ug/plate by Ames assay; type: toxicity, organism-based; conditions: salmonella enterica subsp. enterica serovar typhimurium
Saccharomyces cerevisiae [23] = assay: Mutagenic activity in Saccharomyces cerevisiae D4 at 0.1 ug/plate by Ames assay; type: organism-based
Salmonella typhimurium [24] = assay: Mutagenic activity in Salmonella typhimurium TA-1535 at 0.1 to 100 ug/plate by Ames assay in presence of rat liver microsomal enzyme preparation; type: toxicity, organism-based; conditions: salmonella enterica subsp. enterica serovar typhimurium, microsomes
Salmonella typhimurium [25] = assay: Mutagenic activity in Salmonella typhimurium TA-1537 at 0.1 to 100 ug/plate by Ames assay in presence of rat liver microsomal enzyme preparation; type: toxicity, organism-based; conditions: salmonella enterica subsp. enterica serovar typhimurium, microsomes
Salmonella typhimurium [26] = assay: Mutagenic activity in Salmonella typhimurium TA-1538 at 0.1 to 100 ug/plate by Ames assay in presence of rat liver microsomal enzyme preparation; type: toxicity, organism-based; conditions: salmonella enterica subsp. enterica serovar typhimurium, microsomes
Salmonella typhimurium [27] = assay: Mutagenic activity in Salmonella typhimurium TA-98 at 0.1 to 100 ug/plate by Ames assay in presence of rat liver microsomal enzyme preparation; type: toxicity, organism-based; conditions: salmonella enterica subsp. enterica serovar typhimurium, microsomes
Salmonella typhimurium [28] = assay: Mutagenic activity in Salmonella typhimurium TA-100 at 0.1 to 100 ug/plate by Ames assay in presence of rat liver microsomal enzyme preparation; type: toxicity, organism-based; conditions: salmonella enterica subsp. enterica serovar typhimurium, microsomes
Saccharomyces cerevisiae [29] = assay: Mutagenic activity in Saccharomyces cerevisiae D4 at 0.1 ug/plate by Ames assay in presence of rat liver microsomal enzyme preparation; type: toxicity, organism-based; conditions: microsomes
Saccharomyces cerevisiae [30] = assay: Toxicity in Saccharomyces cerevisiae D4 at 500 ug/plate; type: organism-based; conditions: in vivo
Salmonella typhimurium [31] = assay: Toxicity in Salmonella typhimurium TA-100 at 500 ug/plate; type: organism-based; conditions: salmonella enterica subsp. enterica serovar typhimurium
Salmonella typhimurium [32] = assay: Toxicity in Salmonella typhimurium TA-1538 at 500 ug/plate; type: organism-based; conditions: salmonella enterica subsp. enterica serovar typhimurium
Salmonella typhimurium [33] = assay: Toxicity in Salmonella typhimurium TA-1535 at 500 ug/plate; type: organism-based; conditions: salmonella enterica subsp. enterica serovar typhimurium
Salmonella typhimurium [34] = assay: Toxicity in Salmonella typhimurium TA-1537 at 500 ug/plate; type: organism-based; conditions: salmonella enterica subsp. enterica serovar typhimurium
Candida albicans [35] = assay: Antifungal activity against Candida albicans infected in mouse assessed as noninfected animals at 0.25 to 4% formulation in neat PEG 400 solution administered vaginally bid for 4 days measured on day 21; type: functional, organism-based
Salmonella typhimurium [36] = assay: Toxicity in Salmonella typhimurium TA-98 at 500 ug/plate; type: organism-based; conditions: salmonella enterica subsp. enterica serovar typhimurium
[37] = tested on: Trichophyton mentagrophytes; assay: Antifungal activity against Trichophyton mentagrophytes assessed as growth inhibition by agar dilution method; type: functional
Trichophyton rubrum = assay: Antifungal activity against Trichophyton rubrum assessed as growth inhibition by agar dilution method; type: functional
Trichophyton tonsurans = assay: Antifungal activity against Trichophyton tonsurans assessed as growth inhibition by agar dilution method; type: functional
[38] = Antifungal activity against Trichophyton concentricum assessed as growth inhibition by agar dilution method; type: functional
Nannizzia gypsea = assay: Antifungal activity against Microsporum gypseum assessed as growth inhibition by agar dilution method; type: functional
Microsporum canis = assay: Antifungal activity against Microsporum canis assessed as growth inhibition by agar dilution method; type: functional
Epidermophyton floccosum = assay: Antifungal activity against Epidermophyton floccosum assessed as growth inhibition by agar dilution method; type: functional
Candida albicans [39] = assay: Antifungal activity against Candida albicans ATCC 10231 assessed as growth inhibition by broth dilution method; type: functional
Candida albicans [40] = assay: Antifungal activity against Candida albicans ATCC 14053 assessed as growth inhibition by broth dilution method; type: functional
Cryptococcus neoformans = assay: Antifungal activity against Cryptococcus neoformans assessed as growth inhibition by broth dilution method; type: functional
Staphylococcus aureus [41] = assay: Antibacterial activity against Staphylococcus aureus No. 6538 P assessed as growth inhibition by broth microdilution method; type: functional
Staphylococcus aureus [42] = assay: Antibacterial activity against Staphylococcus aureus No. 14154 assessed as growth inhibition by broth microdilution method; type: functional
Enterococcus faecalis = assay: Antibacterial activity against Streptococcus faecalis No. 8043-2 assessed as growth inhibition by broth microdilution method; type: functional
Streptococcus pyogenes = assay: Antibacterial activity against Streptococcus pyogenes No. 8668 assessed as growth inhibition by broth microdilution method; type: functional
Candida albicans [43] = assay: Antifungal activity against Candida albicans infected in mouse assessed as noninfected animals at 2% formulation in neat PEG 400 solution administered vaginally bid for 4 days measured 6 hrs post last dose relative to placebo; type: functional
Candida albicans [44] = assay: Antifungal activity against Candida albicans infected in mouse assessed as noninfected animals at 2% formulation in neat PEG 400 solution administered vaginally bid for 4 days measured on day 7 relative to placebo; type: functional
Candida albicans [45] = assay: Antifungal activity against Candida albicans infected in mouse assessed as noninfected animals at 1% formulation in neat PEG 400 solution administered vaginally bid for 4 days measured 6 hrs post last dose relative to placebo; type: functional
Candida albicans [46] = assay: Antifungal activity against Candida albicans infected in mouse assessed as noninfected animals at 1% formulation in neat PEG 400 solution administered vaginally bid for 4 days measured on day 7 relative to placebo; type: functional
Candida albicans [47] = assay: Antifungal activity against Candida albicans infected in mouse assessed as noninfected animals at 0.5% formulation in neat PEG 400 solution administered vaginally bid for 4 days measured 6 hrs post last dose relative to placebo; type: functional
Candida albicans [48] = assay: Antifungal activity against Candida albicans infected in mouse assessed as noninfected animals at 0.5% formulation in neat PEG 400 solution administered vaginally bid for 4 days measured on day 7 relative to placebo; type: functional
Candida albicans [49] = assay: Antifungal activity against Candida albicans infected in mouse assessed as noninfected animals at 0.25% formulation in neat PEG 400 solution administered vaginally bid for 4 days measured 6 hrs post last dose relative to placebo; type: functional
Candida albicans [50] = assay: Antifungal activity against Candida albicans infected in mouse assessed as noninfected animals at 0.25% formulation in neat PEG 400 solution administered vaginally bid for 4 days measured on day 7 relative to placebo; type: functional

Clc1ccc(CCC(Cn2ccnc2)Sc2c(Cl)cccc2Cl)cc1.O=[N+]([O-])O (stereo not given) [BUTOCONAZOLE NITRATE]
Activity (Candida albicans [1]): 55% | Activity (Candida albicans [2]): 84% | Activity (Candida albicans [3]): 83% | Activity (Candida albicans [4]): 65% | Activity (Candida albicans [5]): 60% | Activity (Candida albicans [6]): 60% | Activity (Candida albicans [7]): 63% | Activity (Candida albicans [8]): 35% | Activity (Candida albicans [9]): 40% | Activity [10]: 60% | Activity [11]: 90% | Activity [12]: 40% | LD50 [13]: > 3200 mg/kg | LD50 [14]: > 1600 mg/kg | LD50 [15]: > 3200 mg/kg | LD50 [16]: 1720 mg/kg | LD50 [17]: 940 mg/kg | Activity (Salmonella typhimurium [18]): Non-toxic | Activity (Salmonella typhimurium [19]): Non-toxic | Activity (Salmonella typhimurium [20]): Non-toxic | Activity (Salmonella typhimurium [21]): Non-toxic | Activity (Salmonella typhimurium [22]): Non-toxic | Activity (Saccharomyces cerevisiae [23]): Non-toxic | Activity (Salmonella typhimurium [24]): Non-toxic | Activity (Salmonella typhimurium [25]): Non-toxic | Activity (Salmonella typhimurium [26]): Non-toxic | Activity (Salmonella typhimurium [27]): Non-toxic | Activity (Salmonella typhimurium [28]): Non-toxic | Activity (Saccharomyces cerevisiae [29]): Non-toxic | Activity (Saccharomyces cerevisiae [30]): Toxic | Activity (Salmonella typhimurium [31]): Toxic | Activity (Salmonella typhimurium [32]): Toxic | Activity (Salmonella typhimurium [33]): Toxic | Activity (Salmonella typhimurium [34]): Toxic | Activity (Candida albicans [35]): Active | Activity (Salmonella typhimurium [36]): Toxic | GI [37]: 1 µg/mL | GI (Trichophyton rubrum): 0.05 µg/mL | GI (Trichophyton tonsurans): 5 µg/mL | GI [38]: 0.05 µg/mL | GI (Nannizzia gypsea): 0.05 µg/mL | GI (Microsporum canis): 0.1 µg/mL | GI (Epidermophyton floccosum): 5 µg/mL | GI (Candida albicans [39]): 30 µg/mL | GI (Candida albicans [40]): 10 µg/mL | GI (Cryptococcus neoformans): <=1 ug ml-1 | GI (Staphylococcus aureus [41]): 6.25 µg/mL | GI (Staphylococcus aureus [42]): 12.5 µg/mL | GI (Enterococcus faecalis): 3.12 µg/mL | GI (Streptococcus pyogenes): 0.0016 µg/mL | Activity (Candida albicans [43]): 85% | Activity (Candida albicans [44]): 85% | Activity (Candida albicans [45]): 90% | Activity (Candida albicans [46]): 95% | Activity (Candida albicans [47]): 80% | Activity (Candida albicans [48]): 75% | Activity (Candida albicans [49]): 75% | Activity (Candida albicans [50]): 75%

Clc1ccccc1C(c1ccccc1)(c1ccccc1)n1ccnc1 [CLOTRIMAZOLE]
Activity (Candida albicans [45]): 85% | Activity (Candida albicans [46]): 55%
